These results are taken from patent publication US9932325B2 (Denali Therapeutics Inc., priority 2015, dated 2018).

Data set [1] can be described thus: Metabolic stability in human liver microsomes. The data set is classed as in vitro ADME. The settings on record: 1 μM compound, 0.5 mg/mL protein, projected hepatic clearance, well-stirred model. Here is the method:
Metabolic stability of compounds was evaluated in human liver microsomes (from Corning or XenoTech, LLC) using a 96-well plate assay format. Compounds were incubated at 37° C. at 1 μM final concentration in the microsomal matrix (0.5 mg/mL total protein) in the presence or absence of NADPH cofactor. An NADPH regenerating system, comprised of NADP, MgCl2, isocitric acid, and isocitrate dehydrogenase, was used in the assay. Enzymatic reactions were conducted for 0, 5, 10, 20, 30, or 60 min before termination by addition of acetonitrile containing tolbutamide and labetalol internal standards (100 ng/mL). After shaking for 10 min, plates were subjected to centrifugation (4000 rpm at 4° C.) for 20 min and supernatants were mixed 1:3 with HPLC grade water. Samples were analyzed by LC-MS/MS using appropriate MRM transitions for each analyte and internal standard (IS). Analyte/IS peak area ratios were used to determine percent compound remaining at each time point. Intrinsic clearance (Clint; expressed as mL·min^−1·mg^−1) was calculated from the first order elimination constant (k, min^−1) of test article decay and the volume of the incubation. These values were scaled to intrinsic organ clearance (Clint) using human specific scaling factors (48.8 mg microsomal protein per g liver; 25.7 g liver per kg body weight). Organ Clint was subsequently converted to hepatic clearance (CLhep, mL·min-1·kg-1) using the well-stirred model of hepatic elimination, where Qh is human hepatic blood flow (20.7 mL·min-1·kg-1).
CLhep is the projected human clearance in the liver based on the above in vitro assay. A lower value is indicative of less compound being removed by the liver.

The target in data set [2] is LRRK2 G2019S enzyme (Homo sapiens (Human), UniProt Q5S007, G2019S). The experiment in a line: LRRK2 G2019S TR-FRET biochemical assay (LRRKtide substrate). The settings on record: 134 μM ATP. The gist of the method:
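Kinase and LRRKtide substrate were preincubated with compound 20 minutes at 23° C, then ATP was added and the reaction ran 60 minutes at 23° C. Detection used 2 nM antibody with 10 mM EDTA in TR-FRET dilution buffer, 60 minutes at 23° C, read by TR-FRET.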
(TR-FRET usually uses a lanthanide donor and a delayed reading to cut background.)

Data set [3] concerns the target MDR1 (P-glycoprotein) (Homo sapiens (Human), UniProt P08183). The experiment in a line: MDR1-MDCK permeability, bidirectional assay. The format is in vitro ADME. As to conditions: dog, MDR1-MDCK cells, monolayer efflux ratio, pH 7.4, read-out: MDR1 ER. Here is the method:
The blood brain barrier (BBB) separates circulating blood from the extracellular fluid of the central nervous system (CNS). The passive membrane permeability (Papp) and MDR1 (P-glycoprotein) substrate efflux potential were determined using the MDR1-MDCK cell line as an in vitro model of the effective permeability of a compound through the BBB. A bidirectional assay was conducted in pre-plated MDR1-MDCK cells using a 12 or 96-well plate in the absence or presence of MDR1 inhibitor (GF120918 or Valspodar). Assays were run in duplicate in transport buffer (HBSS, pH 7.4) for 90 or 120 min (minutes) at 37° C., using a test article concentration of 1 μM. Monolayer integrity was confirmed using Lucifer yellow, and appropriate positive controls for passive permeability and MDR1 transport were included in each experiment. Following incubation, samples from donor and receiver compartments were removed and quenched with acetonitrile containing an appropriate internal standard (IS). Protein was precipitated by centrifugation for 10 min at 3220 g, and supernatants were diluted in ultra-pure water (if necessary) prior to analysis by LC-MS/MS using appropriate MRM transitions for analytes and IS. Papp (apparent permeability expressed in cm/sec [centimeter/second]) values were calculated according to the following equation:
[formula] where VR is the solution volume in the receiver chamber (apical or basolateral side), Area is the surface area for the insert membrane), Time is incubation time expressed in seconds, CR is the peak area ratio (analyte/IS) in the receiver chamber, CA is the average of the initial and final concentrations in the donor chamber, and Co is the initial peak area ratio in the donor chamber. Papp was determined in both the apical to basolateral (A→B) and basolateral to apical (B→A) directions.
Monolayer efflux ratios (ER) were derived using the following equation: […]

“And” between values parts separate entries of the source, which are not always exact repeats. Equal entries are not always repeated.

The IC50 is the concentration that gives 50% inhibition. High values mean weaker potency in that assay, low ones greater potency in that assay.

MDR1 (P-glycoprotein), sequence (P08183 whole entry): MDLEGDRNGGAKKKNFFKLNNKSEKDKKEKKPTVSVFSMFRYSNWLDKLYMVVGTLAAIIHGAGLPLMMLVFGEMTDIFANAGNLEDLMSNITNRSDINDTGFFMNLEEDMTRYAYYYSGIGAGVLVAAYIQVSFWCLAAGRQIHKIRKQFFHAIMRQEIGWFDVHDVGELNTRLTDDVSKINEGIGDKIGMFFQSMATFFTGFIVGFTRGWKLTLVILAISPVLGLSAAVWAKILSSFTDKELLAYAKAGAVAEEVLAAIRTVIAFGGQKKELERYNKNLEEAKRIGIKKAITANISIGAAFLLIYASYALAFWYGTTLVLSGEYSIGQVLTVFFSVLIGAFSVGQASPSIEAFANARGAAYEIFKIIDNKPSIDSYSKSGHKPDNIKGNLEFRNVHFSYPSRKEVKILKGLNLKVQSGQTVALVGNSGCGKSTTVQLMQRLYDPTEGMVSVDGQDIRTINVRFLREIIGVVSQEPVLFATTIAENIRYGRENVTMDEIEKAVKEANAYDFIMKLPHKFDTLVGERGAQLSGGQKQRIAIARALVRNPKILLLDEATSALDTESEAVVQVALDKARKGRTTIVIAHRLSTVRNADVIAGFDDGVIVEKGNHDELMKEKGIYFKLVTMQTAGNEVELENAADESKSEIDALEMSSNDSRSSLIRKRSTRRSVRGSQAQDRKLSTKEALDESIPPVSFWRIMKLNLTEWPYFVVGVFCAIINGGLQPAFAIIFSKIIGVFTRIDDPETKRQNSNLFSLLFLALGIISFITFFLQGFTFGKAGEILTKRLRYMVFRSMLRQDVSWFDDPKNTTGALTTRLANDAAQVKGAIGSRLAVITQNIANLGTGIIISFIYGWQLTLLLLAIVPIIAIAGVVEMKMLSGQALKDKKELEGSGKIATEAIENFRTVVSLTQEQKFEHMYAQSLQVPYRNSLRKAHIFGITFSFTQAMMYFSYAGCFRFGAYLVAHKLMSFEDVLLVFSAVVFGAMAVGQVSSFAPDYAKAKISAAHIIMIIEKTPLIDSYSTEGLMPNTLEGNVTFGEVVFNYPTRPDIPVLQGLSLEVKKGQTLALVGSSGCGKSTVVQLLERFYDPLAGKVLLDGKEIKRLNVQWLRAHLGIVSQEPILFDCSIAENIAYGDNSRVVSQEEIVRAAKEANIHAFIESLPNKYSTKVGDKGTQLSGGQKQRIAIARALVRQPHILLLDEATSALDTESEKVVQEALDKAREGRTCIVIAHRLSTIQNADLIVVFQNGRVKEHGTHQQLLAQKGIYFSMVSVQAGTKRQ
LRRK2 G2019S enzyme, sequence (Q5S007 whole entry G2019S): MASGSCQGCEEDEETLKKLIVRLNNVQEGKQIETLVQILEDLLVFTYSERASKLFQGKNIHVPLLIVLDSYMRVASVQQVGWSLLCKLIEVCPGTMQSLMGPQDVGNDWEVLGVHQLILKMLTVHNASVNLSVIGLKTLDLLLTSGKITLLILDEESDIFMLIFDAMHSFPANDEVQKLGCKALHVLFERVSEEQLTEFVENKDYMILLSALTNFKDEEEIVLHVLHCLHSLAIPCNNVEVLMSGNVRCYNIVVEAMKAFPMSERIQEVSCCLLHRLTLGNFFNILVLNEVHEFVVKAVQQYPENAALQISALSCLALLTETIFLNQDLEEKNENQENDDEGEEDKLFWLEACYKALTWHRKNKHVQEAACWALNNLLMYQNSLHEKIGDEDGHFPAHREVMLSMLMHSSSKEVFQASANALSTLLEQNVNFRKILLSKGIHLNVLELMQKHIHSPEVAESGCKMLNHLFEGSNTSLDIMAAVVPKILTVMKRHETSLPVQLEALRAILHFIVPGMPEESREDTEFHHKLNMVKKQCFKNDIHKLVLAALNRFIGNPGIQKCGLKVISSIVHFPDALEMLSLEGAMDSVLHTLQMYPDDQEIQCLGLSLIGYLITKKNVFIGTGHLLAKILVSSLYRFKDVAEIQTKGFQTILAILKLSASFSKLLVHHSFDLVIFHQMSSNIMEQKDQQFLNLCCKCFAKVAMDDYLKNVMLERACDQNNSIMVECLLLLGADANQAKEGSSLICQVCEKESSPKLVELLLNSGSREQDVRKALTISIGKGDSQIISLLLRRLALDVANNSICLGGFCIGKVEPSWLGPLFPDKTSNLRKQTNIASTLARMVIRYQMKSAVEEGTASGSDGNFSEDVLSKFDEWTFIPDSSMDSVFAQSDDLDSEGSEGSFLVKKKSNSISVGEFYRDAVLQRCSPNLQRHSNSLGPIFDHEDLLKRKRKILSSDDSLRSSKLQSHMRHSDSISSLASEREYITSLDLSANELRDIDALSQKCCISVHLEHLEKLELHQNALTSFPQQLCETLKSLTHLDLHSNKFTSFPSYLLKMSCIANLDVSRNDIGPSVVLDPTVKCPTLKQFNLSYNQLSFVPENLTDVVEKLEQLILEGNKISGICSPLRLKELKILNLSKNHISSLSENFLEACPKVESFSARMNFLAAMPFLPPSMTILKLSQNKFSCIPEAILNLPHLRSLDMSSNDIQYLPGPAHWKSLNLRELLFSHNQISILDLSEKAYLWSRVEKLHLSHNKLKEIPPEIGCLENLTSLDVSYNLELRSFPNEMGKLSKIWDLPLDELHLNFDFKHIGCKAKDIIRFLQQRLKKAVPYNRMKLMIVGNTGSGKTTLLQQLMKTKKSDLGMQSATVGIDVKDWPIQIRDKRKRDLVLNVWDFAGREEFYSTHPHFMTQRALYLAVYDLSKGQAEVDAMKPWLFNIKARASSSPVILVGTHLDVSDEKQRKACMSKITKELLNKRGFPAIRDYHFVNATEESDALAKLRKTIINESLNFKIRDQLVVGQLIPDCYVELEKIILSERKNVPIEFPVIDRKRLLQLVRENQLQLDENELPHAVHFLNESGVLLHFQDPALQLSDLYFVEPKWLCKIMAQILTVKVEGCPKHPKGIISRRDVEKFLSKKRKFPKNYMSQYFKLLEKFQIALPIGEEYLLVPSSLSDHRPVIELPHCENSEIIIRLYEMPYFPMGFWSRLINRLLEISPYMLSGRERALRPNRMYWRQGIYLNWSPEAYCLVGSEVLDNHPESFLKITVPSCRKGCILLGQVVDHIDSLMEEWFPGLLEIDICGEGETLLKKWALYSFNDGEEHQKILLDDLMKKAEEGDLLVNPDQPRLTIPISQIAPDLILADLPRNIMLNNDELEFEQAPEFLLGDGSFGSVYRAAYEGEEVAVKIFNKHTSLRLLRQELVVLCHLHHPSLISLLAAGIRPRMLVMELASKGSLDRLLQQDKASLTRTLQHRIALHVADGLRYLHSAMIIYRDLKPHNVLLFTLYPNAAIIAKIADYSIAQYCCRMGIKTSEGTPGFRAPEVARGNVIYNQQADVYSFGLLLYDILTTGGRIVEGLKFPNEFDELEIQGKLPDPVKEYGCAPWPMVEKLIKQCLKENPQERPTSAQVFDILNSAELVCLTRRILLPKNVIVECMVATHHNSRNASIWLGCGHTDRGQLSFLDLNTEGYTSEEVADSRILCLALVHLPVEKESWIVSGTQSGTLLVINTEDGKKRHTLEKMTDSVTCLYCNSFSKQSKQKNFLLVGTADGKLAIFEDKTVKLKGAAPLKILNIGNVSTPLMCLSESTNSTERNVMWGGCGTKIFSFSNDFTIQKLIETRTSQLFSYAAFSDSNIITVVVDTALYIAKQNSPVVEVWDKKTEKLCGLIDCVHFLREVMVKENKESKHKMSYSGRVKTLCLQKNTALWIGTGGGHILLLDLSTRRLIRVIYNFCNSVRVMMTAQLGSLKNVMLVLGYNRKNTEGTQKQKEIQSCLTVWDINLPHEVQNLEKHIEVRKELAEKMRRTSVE

As to `[2H]C([2H])([2H])n1nc(C(C)(C)n2nccn2)cc1Nc1ncc(C(F)(F)F)c(NC2CC2)n1` [Compound 68], in data set [1], the “Human liver microsomes CLhep” value is reported as 3.18 mL/min/kg. For the same compound, the IC50 in data set [2] was < 30 nM and 2.23 nM. Also, in data set [3], the efflux ratio at 1 μM worked out at 4.01.

Regarding `CCNc1nc(Nc2cn(C3(C)CCOC3=O)nc2C2CC2)ncc1Br` (single isomer, unassigned) [Compound 114], in data set [1], the “Human liver microsomes CLhep” value turned out to be 16.508 mL/min/kg. Also, the IC50 in data set [2] was < 30 nM and 1.05 nM.

Turning to `CCNc1nc(Nc2cnn(C3CC(C#N)C3)c2C)ncc1C(F)(F)F` (stereo not drawn) [Compound 27], the “Human liver microsomes CLhep” value in data set [1] turned out to be 7.81 mL/min/kg. Further, the efflux ratio at 1 μM in data set [3] turned out to be 0.88.

Turning to `CCNc1nc(Nc2cn(C(C)(C)C#N)nc2C2CC2)ncc1C(F)(F)F` [Compound 118], in data set [1], the “Human liver microsomes CLhep” value is given as 7.81 mL/min/kg. In addition, the half-maximal inhibitory concentration (IC50) in data set [2] is < 30 nM and 1.55 nM. The efflux ratio at 1 μM in data set [3] is 0.83.

`CCNc1nc(Nc2cc(C3(C)CCOC3=O)nn2C2CC2)ncc1Br` (single isomer, unassigned) [Compound 150]: in data set [1], the “Human liver microsomes CLhep” value is recorded as 11.077 mL/min/kg. In addition, in data set [2], the IC50 is < 30 nM and 1.22 nM.

`CCNc1nc(Nc2cc(C(C)(C)n3nccn3)nn2C2CC2)ncc1C(F)(F)F` [Compound 78, N2-[2-cyclopropyl-5-[1-methyl-1-(triazol-2-yl)ethyl]pyrazol-3-yl]-N4-ethyl-5-(trifluoromethyl)pyrimidine-2,4-diamine]: the “Human liver microsomes CLhep” value in data set [1] is 4.81 mL/min/kg. Besides, the concentration for half-maximal inhibition (IC50) in data set [2] is < 30 nM and 3.69 nM. For the same compound, the efflux ratio at 1 μM in data set [3] stood at 2.

For the compound `[2H]C([2H])([2H])n1nc(C(C)(C)n2nccn2)cc1Nc1ncc(C(F)(F)F)c(NCC)n1` [Compound 34, N4-Ethyl-N2-[1-(^2H3)methyl-3-[2-(2H-1,2,3-triazol-2-yl)propan-2-yl]-1H-pyrazol-5-yl]-5-(trifluoromethyl)pyrimidine-2,4-diamine], the “Human liver microsomes CLhep” value in data set [1] is on record as 0.75 mL/min/kg. In data set [2], the IC50 is < 30 nM and 2.31 nM. In data set [3], the efflux ratio at 1 μM amounted to 4.8.

`CCNc1nc(Nc2cn(C3(C)CCOC3=O)nc2C2CC2)ncc1C(F)(F)F` (single isomer, unassigned) [Compound 104]: the “Human liver microsomes CLhep” value in data set [1] turned out to be 11.59 mL/min/kg. In addition, the half-inhibitory concentration (IC50) in data set [2] was < 30 nM and 0.96 nM.

With `CNc1nc(Nc2cc(C3(C)CCOC3=O)nn2C2CC2)ncc1C(F)(F)F` (single isomer, unassigned) [Compound 155], the “Human liver microsomes CLhep” value in data set [1] was found to be 5.519 mL/min/kg. For the same compound, the IC50 in data set [2] was < 30 nM and 1.95 nM.

Consider `CCNc1nc(Nc2cc(C(C)(C)C#N)nn2C2CC2)ncc1Br` [Compound 141], for which the “Human liver microsomes CLhep” value in data set [1] is recorded as 13.508 mL/min/kg. Also, the IC50 in data set [2] is < 30 nM and 3.94 nM.

For `CCNc1nc(Nc2cc(C(C)(C)C#N)nn2C2CC2)ncc1C(F)(F)F` [Compound 131], the “Human liver microsomes CLhep” value in data set [1] is listed as 2.237 mL/min/kg. For the same compound, the IC50 in data set [2] was < 30 nM and 4.98 nM.

Regarding `CNc1nc(Nc2cn(C(C)(C)c3ncn(C)n3)nc2C)ncc1C(F)(F)F` [Compound 218], the “Human liver microsomes CLhep” value in data set [1] was found to be 0 mL/min/kg. Further, the concentration for half-maximal inhibition (IC50) in data set [2] was < 30 nM and 5.91 nM. In addition, the efflux ratio at 1 μM in data set [3] amounted to 86.

With `CNc1nc(Nc2cn(C3(C)CCOC3=O)nc2C2CC2)ncc1C(F)(F)F` (single isomer, unassigned) [Compound 122], the “Human liver microsomes CLhep” value in data set [1] was 9.856 mL/min/kg. In data set [2], the IC50 was < 30 nM and 0.72 nM.

With `CCNc1nc(Nc2cn(C(C)(C)C#N)nc2C2CC2)ncc1Br` [Compound 93], the “Human liver microsomes CLhep” value in data set [1] is 17.663 mL/min/kg. Also, in data set [2], the 50% inhibitory concentration (IC50) was < 30 nM and 1.87 nM.

As for `CCNc1nc(Nc2cc(C3(C)CCOC3=O)nn2C2CC2)ncc1C(F)(F)F` (single isomer, unassigned) [Compound 143], the “Human liver microsomes CLhep” value in data set [1] is recorded as 7.81 mL/min/kg. Also, the concentration for half-maximal inhibition (IC50) in data set [2] is < 30 nM and 1.21 nM.

`[2H]C([2H])([2H])n1nc(C2CCOCC2)cc1Nc1ncc(C(F)(F)F)c(NCC)n1` [Compound 193] had an IC50 in data set [2] of 30 to 60 nM.

As for `CNc1nc(Nc2cnn3c2OCC2(CC2)C3)ncc1C(F)(F)F` [Compound 17], the concentration for half-maximal inhibition (IC50) in data set [2] is less than 30 nM.

Compound `CCNc1nc(Nc2cn(C3CC3)nc2[C@H]2C[C@H](n3nccn3)C2)ncc1C(F)(F)F` [Compound 196] came in with an IC50 in data set [2] of less than 30 nM.

For the compound `CCNc1nc(Nc2cc(C(C)(C)S(C)(=O)=O)nn2C2CC2)ncc1C(F)(F)F` [Compound 139], the 50% inhibitory concentration (IC50) in data set [2] is less than 30 nM.

`[2H]C([2H])([2H])Nc1nc(Nc2cn(C(C)(C)C#N)nc2C([2H])([2H])[2H])ncc1C(F)(F)F` [Compound 63] returned an IC50 in data set [2] of less than 30 nM.

Turning to `CNc1nc(Nc2cnn(C3CN(C4COC4)CCC3(F)F)c2Cl)ncc1C(F)(F)F` (single isomer, unassigned) [Compound 29], the IC50 in data set [2] is less than 30 nM.

In data set [2], `[2H]C([2H])([2H])n1nc(C(C)(C)n2nccn2)cc1Nc1ncc(Br)c(NC2CC2)n1` [Compound 79] came in with a half-inhibitory concentration (IC50) of less than 30 nM.

Compound `CNc1nc(Nc2cn(C(C)(C)c3ncn(C)n3)nc2C)ncc1C(F)(F)F` [Compound 14] displayed an IC50 in data set [2] of less than 30 nM.

The compound `[2H]C([2H])([2H])c1nn(C(C)(C)C#N)cc1Nc1ncc(C(F)(F)F)c(NC)n1` [Compound 62] had a concentration for half-maximal inhibition (IC50) in data set [2] of less than 30 nM.

`COc1nc(Nc2cn(C3C[C@H]3C#N)nc2C2CC2)ncc1Br` (single isomer, unassigned) [Compound 213]: the concentration for half-maximal inhibition (IC50) in data set [2] was less than 30 nM.

On to `CCNc1nc(Nc2cc(C3(C)CCn4ncnc43)nn2C2CC2)ncc1C(F)(F)F` (single isomer, unassigned) [Compound 172], for which the “Human liver microsomes CLhep” value in data set [1] is given as 19.9 mL/min/kg. In addition, in data set [2], the concentration for half-maximal inhibition (IC50) was < 30 nM and 1.47 nM. In data set [3], the efflux ratio at 1 μM was found to be 42.
